Key:
human H4 receptor = target: T1, human H4 receptor (Homo sapiens, UniProt Q9H3N8); experiment: [3H]Histamine binding on membranes of CHO cells stably expressing human H4 receptor
T1 construct: expressed in transfected cells
In short: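 CHO-hH4 membranes 20 μg/well; buffer 50 mM Tris/HCl, 0.5 mM EDTA, pH 7.4; NSB: 10 μM JNJ 7777120 (BP1.2404); GF/B filtration (PEI-presoaked), 3 ice-cold washes; scintillation counting.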

Row | SMILES | Ki or IC50 activity class (human H4 receptor) | melting point
1 | CN1CCC(OC(c2cccc(-c3ccn[nH]3)c2)c2nc3ccccc3s2)CC1 (stereo not shown) [Example 260, 2-{(1-methylpiperidin-4-yloxy)[3-(2H-pyrazol-3-yl)phenyl]methyl}benzothiazole] | < 0.03 µM | 90 °C
2 | C=CCCOc1cccc(C(NC2CCN(C)CC2)c2nc3ccccc3[nH]2)c1 (stereo not shown) [Example 145, [(1H-benzimidazol-2-yl)(3-but-3-enyloxyphenyl)methyl](1-methylpiperidin-4-yl)amine] | < 0.3 µM | 71 °C
3 | CN1CCC(OC(c2cccc(C#CC3CNC3)c2)c2nc3ccccc3[nH]2)CC1 (stereo not shown) [Example 388, 2-[(3-azetidin-3-ylethynylphenyl)(1-methylpiperidin-4-yloxy)methyl]-1H-benzimidazole] | < 1 µM | 131 °C
4 | CN1CCC(OC(c2cccc(SCCC3CCCCN3)c2)c2nc3ccccc3[nH]2)CC1 (stereo not shown) [Example 395, 2-{(1-methylpiperidin-4-yloxy)[3-(2-piperidin-2-yl-ethylsulfanyl)phenyl]methyl}-1H-benzimidazole] | < 0.3 µM | 164 °C
5 | CN1CCC(NC(c2cccc(OCCCCN)c2)c2nc3ccccc3s2)CC1 (stereo not shown) [Example 387, {[3-(4-aminobutoxy)phenyl]benzothiazol-2-yl-methyl}(1-methylpiperidin-4-yl)amine] | < 0.03 µM | 67 °C
6 | CC(C)CCOc1cccc(C(NC2CCN(C)CC2)c2nc3ccccc3[nH]2)c1 (stereo not shown) [Example 68, {(1H-benzimidazol-2-yl)[3-(3-methylbutoxy)phenyl]methyl}(1-methylpiperidin-4-yl)amine] | < 0.3 µM | 70 °C
7 | CN1CCC(OC(c2cccc(SC(C)(C)CCO)c2)c2nc3ccccc3[nH]2)CC1 (stereo not shown) [Example 235, 3-{3-[(1H-benzimidazol-2-yl)(1-methylpiperidin-4-yloxy)methyl]phenylsulfanyl}-3-methyl-butan-1-ol] | < 1 µM | 80 °C
8 | CN1CCC(OC(c2cccc(O)c2)c2nc3ccccc3s2)CC1 (stereo not shown) [Example 62, 3-[benzothiazol-2-yl(1-methylpiperidin-4-yloxy)methyl]phenol] | < 0.03 µM | 201 °C
9 | CN1CCC(OC(c2cccc(-c3cnc(O)nc3)c2)c2nc3ccccc3s2)CC1 (stereo not shown) [Example 214, 5-{3-[benzothiazol-2-yl(1-methylpiperidin-4-yloxy)methyl]phenyl}pyrimidin-2-ol] | < 0.3 µM | 170 °C
10 | CN1CCC(NC(c2cccc(OCC3CCCCC3)c2)c2nc3ccccc3[nH]2)CC1 (stereo not shown) [Example 73, [(1H-benzimidazol-2-yl)(3-cyclohexylmethoxyphenyl)methyl](1-methylpiperidin-4-yl)amine] | < 0.3 µM | 88 °C
11 | CN1CCC(OC(c2cccc(C#CCCCN)c2)c2nc3ccccc3[nH]2)CC1 (single isomer, unassigned) [Example 566, 5-{3-[(1H-benzimidazol-2-yl)(1-methylpiperidin-4-yloxy)methyl]phenyl}pent-4-ynylamine] | < 0.03 µM | 82 °C
12 | CN1CCC(OC(c2cccc(CCC3CNC3)c2)c2nc3ccccc3[nH]2)CC1 (stereo not shown) [Example 392, 2-[[3-(2-azetidin-3-ylethyl)phenyl](1-methylpiperidin-4-yloxy)methyl]-1H-benzimidazole] | < 1 µM | 146 °C
13 | CN1CCC(OC(c2cccc(C#CCCCN)c2)c2nc3ccccc3[nH]2)CC1 (single isomer, unassigned) [Example 565, 5-{3-[(1H-benzimidazol-2-yl)(1-methylpiperidin-4-yloxy)methyl]phenyl}pent-4-ynylamine] | < 0.3 µM | 84 °C
14 | CN1CCC(OC(c2nc3ccccc3[nH]2)c2ccccc2OC(F)(F)F)CC1 (stereo not shown) [Example 251, 2-[(1-methylpiperidin-4-yloxy)(2-trifluoromethoxy-phenyl)methyl]-1H-benzimidazole] | < 1 µM | 193 °C
15 | COc1ccc(COc2cccc(C(NC3CCN(C)CC3)c3nc4ccccc4[nH]3)c2)cc1 (stereo not shown) [Example 124, {(1H-benzimidazol-2-yl)[3-(4-methoxybenzyloxy)phenyl]methyl}(1-methylpiperidin-4-yl)amine] | < 0.03 µM | 84 °C
16 | CCOC(=O)NCCCC#Cc1ccc(F)c(C(OC2CCN(C)CC2)c2nc3cc(F)ccc3[nH]2)c1 (stereo not shown) [Example 570] | < 0.3 µM | 95 °C
17 | CN1CCC(NC(c2ccccc2)c2nc3ccccc3[nH]2)CC1 (stereo not shown) [Example 39, [(1H-benzimidazol-2-yl)phenylmethyl](1-methylpiperidin-4-yl)amine] | < 0.3 µM | 133 °C
18 | CN1CCC(OC(c2cccc(SCCNC(=N)N)c2)c2nc3cc(F)ccc3[nH]2)CC1 (stereo not shown) [Example 437, N-(2-{3-[(5-fluoro-1H-benzimidazol-2-yl)(1-methylpiperidin-4-yloxy)methyl]phenylsulfanyl}ethyl)guanidine] | < 0.03 µM | 170 °C

Continued, values first:

Row | Ki or IC50 activity class (human H4 receptor) | melting point | SMILES
19 | < 0.3 µM | 100 °C | CN1CCC(OC(c2cccc(N)c2)c2nc3ccccc3[nH]2)CC1 (stereo not shown) [Example 224, 3-[(1H-benzimidazol-2-yl)(1-methylpiperidin-4-yloxy)methyl]phenylamine]
20 | < 0.3 µM | 110 °C | CN1CCC(OC(c2ccccc2)c2nc3ccccc3[nH]2)CC1 (stereo not shown) [Example 30, 2-[(1-methylpiperidin-4-yloxy)phenylmethyl]-1H-benzimidazole]
21 | < 1 µM | 135 °C | CCCOc1cccc(C(OC2CCN(C)CC2)c2nc3ccccc3[nH]2)c1 (stereo not shown) [Example 49, 2-[(1-methylpiperidin-4-yloxy)(3-propoxyphenyl)methyl]-1H-benzimidazole]
22 | < 0.3 µM | 125 °C | CN1CCC(OC(c2nc3ccccc3[nH]2)c2ccc3c(c2O)CCCC3)CC1 (stereo not shown) [Example 619]
23 | < 0.03 µM | 128 °C | CN1CCC(OC(c2nc3ccccc3[nH]2)c2cc(SCCCF)ccc2O)CC1 (stereo not shown) [Example 612]
24 | < 0.3 µM | 122 °C | CN1CCC(OC(c2ccc(Br)cc2)c2nc3ccccc3[nH]2)CC1 (stereo not shown) [Example 204, 2-[(4-bromophenyl)(1-methylpiperidin-4-yloxy)methyl]-1H-benzimidazole]
25 | < 0.03 µM | 136 °C | Cc1cc(O)c(C(OC2CCN(C)CC2)c2nc3ccccc3[nH]2)c(F)c1 (stereo not shown) [Example 593]
26 | < 0.03 µM | 184 °C | CN1CCC(OC(c2nc3ccccc3[nH]2)c2ccc(F)c(F)c2O)CC1 (stereo not shown) [Example 625, 6-[(1H-benzimidazol-2-yl)(1-methylpiperidin-4-yloxy)methyl]-2,3-difluorophenol]
27 | < 0.03 µM | 83 °C | COc1cccc(C(OC2CCN(C)CC2)c2nc3ccccc3[nH]2)c1 (stereo not shown) [Example 542]
28 | < 0.3 µM | 92 °C | Cc1ccc(C(OC2CCN(C)CC2)c2nc3ccccc3[nH]2)cc1Br (stereo not shown) [Example 261, 2-[(3-bromo-4-methylphenyl)(1-methylpiperidin-4-yloxy)methyl]-1H-benzimidazole]
29 | < 0.3 µM | 112 °C | COc1cccc(C(OC2CCN(C)CC2)c2nc3ccccc3[nH]2)c1O (stereo not shown) [Example 592]
30 | < 0.3 µM | 143 °C | CN1CCC(OC(c2ccccc2)c2nc3cc(Br)ccc3[nH]2)CC1 (stereo not shown) [Example 170, 5-bromo-2-[(1-methylpiperidin-4-yloxy)phenylmethyl]-1H-benzimidazole]
31 | < 0.3 µM | 90 °C | CN1CCC(OC(c2cccc(-c3ccccc3F)c2)c2nc3ccccc3[nH]2)CC1 (stereo not shown) [Example 142, 2-[(2′-fluorobiphenyl-3-yl)(1-methylpiperidin-4-yloxy)methyl]-1H-benzimidazole]
32 | < 0.3 µM | 120 °C | CCCOc1ccc(O)c(C(OC2CCN(C)CC2)c2nc3ccccc3[nH]2)c1 (stereo not shown) [Example 603]
33 | < 0.03 µM | 95 °C | CN1CCC(OC(c2nc3ccccc3[nH]2)c2cc(OC(F)(F)F)ccc2F)CC1 (stereo not shown) [Example 433, 2-[(2-fluoro-5-trifluoromethoxyphenyl)(1-methylpiperidin-4-yloxy)methyl]-1H-benzimidazole]
34 | < 0.3 µM | 146 °C | COc1ccc(O)c(C(OC2CCN(C)CC2)c2nc3ccccc3[nH]2)c1 (stereo not shown) [Example 573]
35 | < 0.3 µM | 135 °C | CN1CCC(OC(c2nc3ccccc3[nH]2)c2cc(C(F)(F)F)ccc2O)CC1 (stereo not shown) [Example 598]
36 | < 1 µM | 170.5 °C | CN1CCC(OC(c2ccccc2)c2nc3cccc(O)c3[nH]2)CC1 (stereo not shown) [Example 210, 2-[(1-methylpiperidin-4-yloxy)phenylmethyl]-3H-benzimidazol-4-ol]
37 | < 0.3 µM | 101 °C | CN1CCC(OC(c2cccc(C#CCN)c2)c2nc3ccccc3[nH]2)CC1 (stereo not shown) [Example 194, 3-{3-[(1H-benzimidazol-2-yl)(1-methylpiperidin-4-yloxy)methyl]phenyl}prop-2-ynylamine]
38 | < 0.3 µM | 144 °C | Cc1cc(F)c(O)c(C(OC2CCN(C)CC2)c2nc3ccccc3[nH]2)c1 (stereo not shown) [Example 595]
39 | < 0.03 µM | 132 °C | CN1CCC(OC(c2nc3ccccc3[nH]2)c2cc(OC(F)(F)F)ccc2O)CC1 (stereo not shown) [Example 571]
40 | < 0.3 µM | 53 °C | CN1CCC(OC(c2cccc(N=[N+]=[N-])c2)c2nc3ccccc3[nH]2)CC1 (stereo not shown) [Example 231, 2-[(3-azidophenyl)(1-methylpiperidin-4-yloxy)methyl]-1H-benzimidazole]
41 | < 0.03 µM | 133 °C | CN1CCC(OC(c2nc3ccccc3[nH]2)c2ccc(OC(F)(F)F)cc2O)CC1 (stereo not shown) [Example 621]
